Patent US8119633B2, “Substituted sulfonamide compounds” (Gruenenthal GmbH, priority 2007, dated 2012)

Key:
[1] = molecular target: T1, human bradykinin receptor 1 (B1R) (Homo sapiens, UniProt P46663); experiment: Functional study on the bradykinin receptor 1 (B1R), human: FLIPR Ca2+ influx assay; type: cell-based; conditions: test substance 10 μM; CHO K1 cells transfected with human B1R; Lys-Des-Arg9-bradykinin at EC80; Ca2+ influx (Fluo-4, FLIPR); read-out: B1R antagonism, human [10 μM] % inhibition
T1 construct: expressed in transfected cells; host or cells: CHO K1 cells
T1 sequence (P46663 1-353): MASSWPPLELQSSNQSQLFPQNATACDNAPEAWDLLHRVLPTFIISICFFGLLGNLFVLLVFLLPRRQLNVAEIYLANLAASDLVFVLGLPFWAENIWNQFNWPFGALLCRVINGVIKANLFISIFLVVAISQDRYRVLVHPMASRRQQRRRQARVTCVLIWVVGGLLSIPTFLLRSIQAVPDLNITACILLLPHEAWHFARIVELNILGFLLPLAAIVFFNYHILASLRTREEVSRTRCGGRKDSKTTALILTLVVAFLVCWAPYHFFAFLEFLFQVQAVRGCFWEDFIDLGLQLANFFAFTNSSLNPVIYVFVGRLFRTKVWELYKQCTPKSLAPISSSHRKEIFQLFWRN
Procedure, shortened: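 CHO K1 cells stably expressing human B1R were loaded with Fluo-4, and Ca2+ fluorescence was read on FLIPR (ex 488/em 540 nm). Compound was added first (10 μM for % activation against Lys-Des-Arg9-bradykinin ≥0.5 nM). After 10-20 min, Lys-Des-Arg9-bradykinin was added at EC80 for % inhibition; IC50 came from concentration series, n=2-3, N≥2.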

human μ-opiate receptor = molecular target: T2, human μ-opiate receptor (Homo sapiens, UniProt P35372); experiment: Affinity for the human μ-opiate receptor ([3H]-naloxone displacement, SPA); conditions: test substance 1 μmol/l; inhibition of specific [3H]-naloxone binding; CHO-K1 receptor membrane preparation; read-out: μ-Opioid receptor [1 μM] % inhibition
T2 construct: purchased PerkinElmer Life Sciences, Zaventem, Belgium RB-HOM; host or cells: CHO-K1 cells (membrane preparation)
Procedure, shortened: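 Membranes from CHO-K1 cells expressing human μ-opiate receptor were incubated 90 min at room temperature with 1 nmol/l [3H]-naloxone and WGA-SPA beads in 50 mmol/l Tris-HCl with 0.06% BSA; non-specific binding was defined with 100 μmol/l naloxone. Percent inhibition was measured at 1 μmol/l, IC50 was derived from concentration series, and Ki was obtained by Cheng-Prusoff.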

[2] = molecular target: T3, bradykinin receptor 1 (B1R) of the rat (Rattus norvegicus, UniProt P97583); experiment: Functional study on the bradykinin receptor 1 (B1R), rat: FLIPR Ca2+ influx assay; type: cell-based; conditions: test substance 10 μM; CHO K1 cells transfected with rat B1R; Des-Arg9-bradykinin at EC80; Ca2+ influx (Fluo-4, FLIPR); read-out: B1R antagonism, rat [10 μM] % inhibition
T3 construct: expressed in transfected cells; host or cells: CHO K1 cells
T3 sequence (P97583 1-337): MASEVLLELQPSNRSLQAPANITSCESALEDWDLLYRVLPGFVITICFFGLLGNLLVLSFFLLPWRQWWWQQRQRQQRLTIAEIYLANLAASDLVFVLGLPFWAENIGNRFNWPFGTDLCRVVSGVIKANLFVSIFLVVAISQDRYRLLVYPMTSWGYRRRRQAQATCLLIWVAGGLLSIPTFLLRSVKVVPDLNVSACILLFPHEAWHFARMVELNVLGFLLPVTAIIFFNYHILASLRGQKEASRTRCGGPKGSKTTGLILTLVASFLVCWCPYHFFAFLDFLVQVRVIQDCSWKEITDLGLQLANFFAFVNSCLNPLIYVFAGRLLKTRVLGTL
Procedure, shortened: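 CHO K1 cells stably expressing rat B1R, Fluo-4-loaded, read on FLIPR (ex 488/em 540 nm, peak fluorescence). Test substances added first (agonism vs 10 μM Des-Arg9-bradykinin), then after 10-20 min Des-Arg9-bradykinin at EC80; % inhibition and IC50 from concentration series, n=2-3, N≥2.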

T2 sequence (P35372 whole entry): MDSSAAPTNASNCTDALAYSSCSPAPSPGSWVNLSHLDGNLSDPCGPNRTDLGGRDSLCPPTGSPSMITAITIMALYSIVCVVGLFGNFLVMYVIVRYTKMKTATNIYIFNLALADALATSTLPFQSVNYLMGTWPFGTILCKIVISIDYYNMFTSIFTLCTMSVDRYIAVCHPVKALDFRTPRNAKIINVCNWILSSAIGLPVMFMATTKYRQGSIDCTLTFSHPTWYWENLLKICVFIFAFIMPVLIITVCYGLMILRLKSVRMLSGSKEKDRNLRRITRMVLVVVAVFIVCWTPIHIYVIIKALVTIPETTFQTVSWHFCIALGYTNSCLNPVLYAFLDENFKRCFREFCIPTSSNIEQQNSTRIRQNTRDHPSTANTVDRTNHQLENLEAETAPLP

SMILES | inhibition at 10 µM [1] | inhibition at 1 µM (human μ-opiate receptor) | inhibition at 10 µM [2]
O=C(CC1CCCCN1S(=O)(=O)c1ccc(Cl)c(Cl)c1)NCC1CCC(C(CCc2ccccc2)N2CCOCC2)CC1 (stereo not drawn) [Example 83, 2-[1-(3,4-dichloro-benzenesulfonyl)-piperidin-2-yl]-N-[4-(1-morpholin-4-yl-3-phenyl-propyl)-cyclohexylmethyl]-acetamide] | 37% | 22% | -3%
O=C(CC1CCCCN1S(=O)(=O)c1ccc(Cl)c(Cl)c1)NCC1CCC(C(CCc2ccccc2)N2CCCC2)CC1 (stereo not drawn) [Example 84, 2-[1-(3,4-dichloro-benzenesulfonyl)-piperidin-2-yl]-N-[4-(3-phenyl-1-pyrrolidin-1-yl-propyl)-cyclohexylmethyl]-acetamide] | 95.4% | 90% | 19%
O=C(CC1CCCCN1S(=O)(=O)c1ccc(Cl)c(Cl)c1)NCC1CCC(C(c2ccccc2)N2CCCC2)CC1 (stereo not drawn) [Example 85, 2-[1-(3,4-dichloro-benzenesulfonyl)-piperidin-2-yl]-N-[4-(phenyl-pyrrolidin-1-ylmethyl)-cyclohexylmethyl]-acetamide] | 92.7% | 95% | 22%
O=C(CC1CCCCN1S(=O)(=O)c1ccc(Cl)c(Cl)c1)NC1CCC(C(CCc2ccccc2)N2CCCCC2)CC1 (stereo not drawn) [Example 86, 2-[1-(3,4-dichloro-benzenesulfonyl)-piperidin-2-yl]-N-[4-(3-phenyl-1-piperidin-1-yl-propyl)-cyclohexyl]-acetamide] | 101% | 54% | 30%
O=C(CC1CCCCN1S(=O)(=O)c1ccc(Cl)c(Cl)c1)NC1CCC(C(CCc2ccccc2)N2CCOCC2)CC1 (stereo not drawn) [Example 87, 2-[1-(3,4-dichloro-benzenesulfonyl)-piperidin-2-yl]-N-[4-(1-morpholin-4-yl-3-phenyl-propyl)-cyclohexyl]-acetamide] | 96.8% | 38% | 25%
CN1CCN(C(c2ccccc2)C2CCC(NC(=O)CC3CCCCN3S(=O)(=O)c3ccc(Cl)c(Cl)c3)CC2)CC1 (stereo not drawn) [Example 88, 2-[1-(3,4-dichloro-benzenesulfonyl)-piperidin-2-yl]-N-{4-[(4-methyl-piperazin-1-yl)-phenyl-methyl]-cyclohexyl}-acetamide] | 101% | 58% | 61%
O=C(CC1CCCCN1S(=O)(=O)c1ccc(Cl)c(Cl)c1)N1CCC(C(c2ccccc2)N2CCOCC2)CC1 (stereo not drawn) [Example 89, 2-[1-(3,4-dichloro-benzenesulfonyl)-piperidin-2-yl]-1-[4-(morpholin-4-yl-phenylmethyl)-piperidin-1-yl]-ethanone] | 16.4% | 8.5% | 26%
O=C(CC1CCCCN1S(=O)(=O)c1ccc(Cl)c(Cl)c1)N1CCC(C(Cc2ccccc2)N2CCOCC2)CC1 (stereo not drawn) [Example 90, 2-(1-(3,4-dichlorophenylsulfonyl)piperidin-2-yl)-1-(4-(1-morpholino-2-phenylethyl)piperidin-1-yl)ethanone] | 14.4% | 12% | 17%
O=C(CC1C(=O)NCCN1S(=O)(=O)c1ccc(Cl)cc1Cl)NC1CCC(C(c2ccccc2)N2CCOCC2)CC1 (stereo not drawn) [Example 101, 2-(1-(2,4-dichlorophenylsulfonyl)-3-oxopiperazin-2-yl)-N-(4-(morpholino(phenyl)methyl)cyclohexyl)acetamide] | 104% | 4% | 31%
O=C(CC1C(=O)NCCN1S(=O)(=O)c1ccc(Cl)cc1Cl)NC1CCC(C(c2ccccc2)N2CCCC2)CC1 (stereo not drawn) [Example 102, 2-(1-(2,4-dichlorophenylsulfonyl)-3-oxopiperazin-2-yl)-N-(4-(phenyl(pyrrolidin-1-yl)methyl)cyclohexyl)acetamide] | 104% | 35% | 12%
O=C(CC1C(=O)Nc2ccccc2N1S(=O)(=O)c1ccc(Cl)c(Cl)c1)NC1CCC(C(c2ccccc2)N2CCCC2)CC1 (stereo not drawn) [Example 103, 2-(1-(3,4-dichlorophenylsulfonyl)-3-oxo-1,2,3,4-tetrahydroquinoxalin-2-yl)-N-(4-(phenyl(pyrrolidin-1-yl)methyl)cyclohexyl)acetamide] | 103% | 71% | 37%
O=C(CC1CCCN1S(=O)(=O)c1ccc(Cl)c(Cl)c1)NC1CCC(C(c2ccccc2)N2CCOCC2)CC1 (stereo not drawn) [Example 104, 2-(1-(3,4-dichlorophenylsulfonyl)pyrrolidin-2-yl)-N-(4-(morpholino(phenyl)methyl)cyclohexyl)acetamide] | 32.8% | 11% | 13%
O=C(CC1CCCN1S(=O)(=O)c1ccc(Cl)c(Cl)c1)NC1CCC(C(c2ccccc2)N2CCCC2)CC1 (stereo not drawn) [Example 105, 2-(1-(3,4-dichlorophenylsulfonyl)pyrrolidin-2-yl)-N-(4-(phenyl(pyrrolidin-1-yl)methyl)cyclohexyl)acetamide] | 99.5% | 76% | 24%
O=C(CC1CCCCN1S(=O)(=O)c1ccc(Cl)c(Cl)c1)NC1CCC(C(c2ccccc2)N2CCOCC2)CC1 (stereo not drawn) [Example 106, 2-(1-(3,4-dichlorophenylsulfonyl)piperidin-2-yl)-N-(4-(morpholino(phenyl)methyl)cyclohexyl)acetamide] | 48.3% | 21% | 19%
O=C(CC1CCCCN1S(=O)(=O)c1ccc(Cl)c(Cl)c1)NC1CCC(C(c2ccccc2)N2CCCC2)CC1 (stereo not drawn) [Example 107, 2-(1-(3,4-dichlorophenylsulfonyl)piperidin-2-yl)-N-(4-(phenyl(pyrrolidin-1-yl)methyl)cyclohexyl)acetamide] | 102% | 78% | 26%
CN1CCN(C(c2ccccc2)C2CCN(C(=O)CC3CCCCN3S(=O)(=O)c3cccc(C(F)(F)F)c3)CC2)CC1 (stereo not drawn) [Example 108, 1-(4-((4-methylpiperazin-1-yl)(phenyl)methyl)piperidin-1-yl)-2-(1-(3-(trifluoromethyl)phenylsulfonyl)piperidin-2-yl)ethanone] | 97% | 6% | 78%
CN1CCN(C(c2ccc(F)cc2)C2CCN(C(=O)CC3CCCCN3S(=O)(=O)c3cccc(C(F)(F)F)c3)CC2)CC1 (stereo not drawn) [Example 109, 1-(4-((4-fluorophenyl)(4-methylpiperazin-1-yl)methyl)piperidin-1-yl)-2-(1-(3-(trifluoromethyl)phenylsulfonyl)piperidin-2-yl)ethanone] | 102% | 5% | 99%
CN1CCN(C(c2cccc(F)c2)C2CCN(C(=O)CC(NS(=O)(=O)c3ccc4ccccc4c3)c3ccccc3)CC2)CC1 (stereo not drawn) [Example 110, N-(3-(4-((3-fluorophenyl)(4-methylpiperazin-1-yl)methyl)piperidin-1-yl)-3-oxo-1-phenylpropyl)naphthalene-2-sulfonamide] | 102% | 3% | 100%
CN1CCN(C(Cc2ccccc2)C2CCN(C(=O)CC3CCCCN3S(=O)(=O)c3cccc(C(F)(F)F)c3)CC2)CC1 (stereo not drawn) [Example 111, 1-(4-(1-(4-methylpiperazin-1-yl)-2-phenylethyl)piperidin-1-yl)-2-(1-(3-(trifluoromethyl)phenylsulfonyl)piperidin-2-yl)ethanone] | 94% | -2% | 61%
